The record followed here is patent publication US5629298A, “Adenosine as a positive inotrop in the compromised heart” (University of Massachusetts Medical Center, priority 1995, dated 1997).

Assay [1] concerns myocardial membrane adenylyl cyclase. Put plainly: Adenylyl cyclase activity of crude ventricular myocardial membranes. It counts as biochemical, rat. The method, then:
Crude ventricular myocardial membranes were prepared according to the following procedure. Isolated rat hearts were perfused with 5 ml of ice cold saline (0.9% NaCl) to wash out the blood, minced into 2-3 mm^3 cubes, and placed in 10 ml of homogenization buffer (HB) containing 10 mM HEPES (pH 7.4), 1 mM ethylenediamine-tetraacetic acid (EDTA), 1 mM DTT and 10 μg/ml soybean trypsin inhibitor. The suspension was homogenized with a PT-10 PolytronTM generator at a speed of 6 for two 15-second periods separated by 15 seconds. The homogenized material was also treated with 2 strokes of a glass/teflon motor driven Potter-Elvehjen homogenizer operated at 1/2 full speed. Upon addition of 4.7 ml of HB containing 1.25M sucrose the homogenate was mixed and centrifugated at 1,000 x g for 15 minutes. The supernatant was filtered through 4 layers of cheesecloth and 14.5 ml HB was added. […] Membranes were assayed immediately for adenylyl cyclase activity. […] The formed [α-^32 […] separated from the [α-^32 P]dATP by sequential chromatography using columns of cation exchange resin AG 50W-X4 (200-400 mesh) and neutral alumnia AG 7 (100-200 mesh) after the methods of Salomon (Adv. Cyclic Nucleotide Res. 10:35 (1979). All results were corrected for column recovery of [^3 […] ranged between 60 and 90%. The activity of the adenylyl cyclase is expressed as pmol [α-^32 […] formed/min/mg protein.

Assay [2] has as its system cultured ventricular myocytes. Put plainly: cAMP content of cultured ventricular myocytes (125I-cAMP RIA). Format: cell-based, rat. Particulars: Rattus norvegicus, Ventricular myocyte. The method, then:
When myocytes were to be used for biochemical studies, each of the culture dishes was preincubated for 2 hours with 1 ml of MEM containing 33 μg of laminin in a 37° C. incubator gassed with 5% CO2 in room air. The laminin solution was removed prior to myocyte seeding. After seeding, the dishes were incubated for an additional 2 hours. The settling and short term culture procedures were performed to purify the myocytes so that >95% of the myocytes adhering to the dishes were rod shaped.
Cyclic AMP levels were determined in cultures of ventricular myocytes according to the following method. After the 2-hour incubation period, the MEM was aspirated and replaced with 2 ml of fresh MEM. Adenosine agonists, ISO, or adenosine antagonists were added to the medium bathing the cells at the concentrations and times indicated. The experiment was terminated by removing the medium from the dish and adding 200 μl of 1N HCl over the cultured myocyte surface. The dishes were then frozen in liquid N2 and stored at -70° C. or held on ice momentarily until extraction was initiated.
For assay, the contents of the dishes were transferred (using 1 ml of distilled/deionized H2 O) into microcentrifuge tubes. The extracts were heated for 1 hour at 57° C. and sonicated for 10 minutes. The extracts were then centrifugated at 14,000 x g for 15 minutes. The supernatant was removed, evaporated, reconstituted in 500 μl of 50 mM sodium acetate buffer and assayed for cAMP using an ^125 I-cAMP RIA kit (Amersham). The pellet was solubilized with 0.1N NaOH and protein determined. The cAMP values are reported in pmol cAMP/mg protein of the extract pellet (total cell protein). This cAMP assay procedure routinely provided recovery values in excess of 90%.

Setting [3] is: 10 min, read-out: increase in myocyte cAMP.

Read-outs that look alike come from different tables or passages of the source.

With `CCNC(=O)[C@H]1O[C@@H](n2cnc3c(N)nc(NCCc4ccc(CCC(=O)O)cc4)nc32)[C@H](O)[C@@H]1O` [CGS-21680, 2-p-(2-carboxy-ethyl)phenethyl-amino-5'-N-ethylcarboxamido-adenosine], in assay [1] (homogenate of the rat heart ventricular myocardium, only at 1 MM CGS-21680), the adenylyl cyclase activity result is on record as “increased”. In addition, in assay [2] (setting [3]), the activation at 1 µM came to 77% and the activation at 10 µM came to 174%. Besides, in assay [2] (10 min, read-out: EC50 for increase in myocyte cAMP), the concentration giving a half-maximal response (EC50) came out at 1150 ± 370 nM.

`CC(C)NCC(O)c1ccc(O)c(O)c1` (stereo not shown) [ISO, isoproterenol]: the activation at 0.1 µM in assay [2] (1 min, ISO at 0.1 μM for 1 minutes, read-out: increase in myocyte cAMP over basal) worked out at 90%. Further, the activation at 1 µM in assay [2] (1 min, ISO at 1 μM for 1 minutes, read-out: increase in myocyte cAMP over basal) was determined as 138%.

Consider `Nc1ncnc2c1ncn2[C@@H]1O[C@H](CO)[C@@H](O)[C@H]1O` [adenosine], for which, in assay [1] (adenosine at 0 to 1 mM, absence or presence of 1 μM DPCPX, myocardium membranes), the “adenylyl cyclase activity above basal levels” value was “did not increase”.

What is called EC50 is the concentration giving half of the maximal effect.
